Earlier results in patent US20090275559A1, “Chronotherapeutic formulations of modified-release calcium channel blocker anti-hypertensive drugs in combination with other anti-hypertensive drugs for 24-hour optimal treatment of hypertension, nocturnal hypertension, and/or hypertension with angina” (Blue Note Pharmaceuticals, Inc., priority 2008, published 2009).

Assays:
[1] = low pHs (0.1 N HCl)
[2] = extensive first-pass metabolism in the liver

| water solubility [1] | plasma half-life [2] [h] | SMILES |
| --- | --- | --- |
| low | – | CCCCC1=NC2(CCCC2)C(=O)N1Cc1ccc(-c2ccccc2-c2nnn[nH]2)cc1 [Irbesartan] |
| – | 2 to 6 | COc1ccc([C@@H]2Sc3ccccc3N(CCN(C)C)C(=O)[C@@H]2OC(C)=O)cc1 [diltiazem] |
